Data on 25 molecules can be found in ChEMBL document CHEMBL4433200, “Another look at phenolic compounds in cancer therapy the effect of polyphenols on ubiquitin-proteasome system” (Eur J Med Chem, 2019).

Test [1] deals with T1, Proteasome Macropain subunit MB1 (Homo sapiens, UniProt P28074).
T1 sequence (P28074 whole entry): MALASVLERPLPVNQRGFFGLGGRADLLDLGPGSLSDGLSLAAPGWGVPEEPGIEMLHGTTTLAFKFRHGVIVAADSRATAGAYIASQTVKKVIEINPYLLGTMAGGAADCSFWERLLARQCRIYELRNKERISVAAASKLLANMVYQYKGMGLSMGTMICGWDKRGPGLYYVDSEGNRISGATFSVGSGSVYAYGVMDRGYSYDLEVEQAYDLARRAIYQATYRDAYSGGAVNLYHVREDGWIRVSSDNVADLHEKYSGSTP
Kind of test: Inhibition of chymotrypsin-like activity of purified human erythrocyte 20S proteasome assessed as decrease in AMC hydrolysis using Suc-LLVY-AMC as substrate preincubated for 10 mins and measured by fluorescence based method.

Test [2] addresses T1, Proteasome Macropain subunit MB1. Briefly: Inhibition of chymotrypsin-like activity of purified human 20S proteasome assessed as decrease in AMC hydrolysis using Suc-Leu-Leu-Val-Tyr-AMC as substrate incubated for 30 mins by fluorometric analysis.
Test [3] shares this target. Briefly: Inhibition of chymotrypsin-like activity of purified human 20S proteasome expressed in human Jurkat cells assessed as decrease in AMC hydrolysis using Suc-Leu-Leu-Val-Tyr-AMC as substrate incubated for 2 hrs by fluorescence based method.
Test [4] shares this target. Briefly: Inhibition of chymotrypsin-like activity of human 26S proteasome in human Jurkat cells assessed as decrease in AMC hydrolysis using Z-Gly-Gly-Leu-AMC as substrate after 24 hrs by fluorescence based method. It is filed as cell-based.
Test [5] can be described thus: Inhibition of chymotrypsin-like activity of purified rabbit 20S proteasome assessed as decrease in AMC hydrolysis using Suc-Leu-Leu-Val-Tyr-AMC as substrate incubated for 30 mins by fluorescence based method. Set-up: species or system Oryctolagus cuniculus.
Test [6] has as its target T1, Proteasome Macropain subunit MB1. Kind of test: Inhibition of chymotrypsin-like activity of human 26S proteasome extracted from human LNCap cells assessed as decrease in AMC hydrolysis using Suc-Leu-Leu-Val-Tyr-AMC as substrate incubated for 60 mins by fluorescence based method. In kind it is cell-free.
Test [7] has as its target T2, Proteasome subunit beta type-5 (Rattus norvegicus, UniProt P28075).
T2 sequence (P28075 whole entry): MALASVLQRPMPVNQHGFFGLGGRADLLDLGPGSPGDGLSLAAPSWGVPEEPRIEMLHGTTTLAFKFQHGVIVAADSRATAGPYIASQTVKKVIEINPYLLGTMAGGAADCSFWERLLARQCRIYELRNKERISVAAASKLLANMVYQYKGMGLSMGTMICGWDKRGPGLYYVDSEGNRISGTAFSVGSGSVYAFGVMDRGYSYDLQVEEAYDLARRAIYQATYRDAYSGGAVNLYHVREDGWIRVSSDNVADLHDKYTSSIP
Briefly: Inhibition of chymotrypsin-like activity of rat liver 26 proteasome assessed as decrease in fluorescence using succinyl-Leu-Leu-Val-Tyr-4-methylcoumaryl-7-amide as substrate preincubated for 30 mins followed by addition of substrate and measured after 1 hr by fluorescence based method.

Test [8] in a line: Inhibition of chymotrypsin-like activity of rabbit 20S proteasome assessed as AMC hydrolysis using Suc-LLVY-AMC as substrate incubated for 2hrs by fluorescence based method. More on the design: species or system Oryctolagus cuniculus.
In test [9] the target is T1, Proteasome Macropain subunit MB1. Kind of test: Inhibition of chymotrypsin-like activity of human 26S proteasome in human Jurkat cells assessed as decrease in AMC hydrolysis using […] as substrate preincubated for 12 hrs followed by addition of substrate and measured after 2 hrs by fluorometric analysis. It is filed as cell-based.
Test [10] shares this target. Kind of test: Inhibition of chymotrypsin-like activity of human 26S proteasome extracted from human Jurkat cells assessed as decrease in AMC hydrolysis using […] as substrate after 90 mins by fluorometric analysis. In kind it is cell-free.

In general, IC50 refers to the concentration that gives 50% inhibition.

Molecules are shown by their SMILES. ≈ marks a conversion by molar mass, not a printed value. Bounds are passed on as bounds.

For `O=C(/C=C/c1ccc(O)cc1)c1ccc(O)cc1O` [ISOLIQUIRITIGENIN], the IC50 in test [1] was 4.88 µM.

Consider `O=C(O[C@@H]1Cc2c(O)cc(O)cc2O[C@@H]1c1ccc(O)c(O)c1)c1cc(O)c(O)c(O)c1` [EPICATECHIN GALLATE], for which the IC50 in test [2] was 0.194 µM.

As for `O=c1cc(-c2ccc(O)c(O)c2)oc2cc(O)cc(O)c12` [LUTEOLIN], the IC50 in [3] worked out at 1.5 µM; in test [4], 1.3 µM.

As to `O=c1c(-c2ccc(O)cc2)coc2cc(O)cc(O)c12` [GENISTEIN], the IC50 in [5] is 26 µM; in test [1], 9.26 µM; in [6] it was 65 to 70 µM. In the case of `O=C1C[C@@H](c2ccc(O)cc2)Oc2cc(O)cc(O)c21` [NARINGENIN], the concentration for half-maximal inhibition (IC50) in test [3] is 48.8 µM; in [4], 41.6 µM. Consider `C=CC(/C=C\c1ccc(O)cc1)c1ccc(O)cc1` (configuration not stated), for which the IC50 in test [7] stood at 0.018 µg/mL (≈ 0.0713 µM). As for `O=C(O[C@@H]1Cc2c(O)cc(O)cc2O[C@H]1c1cc(O)c(O)c(O)c1)c1cc(O)c(O)c(O)c1` [GALLOCATECHIN GALLATE], the 50% inhibitory concentration (IC50) in [2] worked out at 0.187 µM. Turning to `COc1cc(/C=C/C(=O)CC(=O)/C=C/c2ccc(O)c(OC)c2)ccc1O` [CURCUMIN], in test [8], the IC50 was found to be 1.85 µM.

Regarding `Oc1cc(O)c2c(c1)O[C@H](c1cc(O)c(O)c(O)c1)[C@H](O)C2` [EPIGALLOCATECHIN], the IC50 in test [2] worked out at 1200 µM. With `COc1cc(O)ccc1CCCc1ccc(O)cc1` [BROUSSONIN B], the IC50 in test [7] was determined as 0.046 µg/mL (≈ 0.178 µM). Consider `COc1cc(O)c(C(=O)c2ccc(O)cc2)c(O)c1`, for which the IC50 in test [7] is above 0.25 µg/mL. Regarding `Oc1ccc(CC2COc3cc(O)ccc3C2)cc1` (configuration not stated), the IC50 in test [7] is 0.06 µg/mL (≈ 0.234 µM). `O=C(O[C@@H]1Cc2c(O)cc(O)cc2O[C@H]1c1ccc(O)c(O)c1)c1cc(O)c(O)c(O)c1` [(-)-CATECHINGALLATE]: the IC50 in test [2] came out at 0.124 µM. For `O=C(O)c1cc(O)c(O)c(O)c1` [GALLIC ACID], in test [2], the IC50 amounted to 7100 µM.

With `O=c1c(O)c(-c2ccc(O)cc2)oc2cc(O)cc(O)c12` [KAEMPFEROL], the IC50 in [3] was 10.5 µM; in test [4], 11 µM. In the case of `O=c1c(O)c(-c2cc(O)c(O)c(O)c2)oc2cc(O)cc(O)c12` [MYRICETIN], the IC50 was determined as 10 µM in [3] and 12 µM in test [4]. With `O=C1C[C@@H](c2ccc(O)cc2)Oc2cc(O)ccc21` [LIQUIRTIGENIN], in test [1], the IC50 is above 100 µM. In the case of `O=C(O[C@@H]1Cc2c(O)cc(O)cc2O[C@@H]1c1cc(O)c(O)c(O)c1)c1cc(O)c(O)c(O)c1` [EPIGALOCATECHIN GALLATE], the concentration for half-maximal inhibition (IC50) is 18 µM in [9], 0.086 to 0.194 µM in [2] and 1 to 10 µM in [10]. Turning to `O=c1cc(-c2ccccc2)oc2cc(O)cc(O)c12` [CHRYSIN], the IC50 in [3] was 4.9 µM; in [4], 6.1 µM. Regarding `COc1ccc(-c2coc3cc(O)ccc3c2=O)cc1` [FORMONONETIN], in [1], the IC50 was above 100 µM. In the case of `O=c1cc(-c2ccc(O)cc2)oc2cc(O)cc(O)c12` [APIGENIN], the IC50 in [3] was in the range of 1.8 to 2.3 µM; in test [4], 1 to 1.9 µM. Regarding `O=C1C[C@@H](c2ccc(O)c(O)c2)Oc2cc(O)cc(O)c21` [ERIODICTYOL], the figures for the IC50 in [3] and in [4] were 16.2 µM and 14.6 µM, respectively. Regarding `O=c1c(-c2ccc(O)cc2)coc2cc(O)ccc12` [DAIDZEIN], the IC50 in test [1] was above 100 µM. On to `COc1ccc2c(c1)O[C@H]1c3ccc(O)cc3OC[C@@H]21`, for which the IC50 in [1] is above 100 µM.

For the molecule `O=c1c(O)c(-c2ccc(O)c(O)c2)oc2cc(O)cc(O)c12` [QUERCETIN], the IC50 in test [3] stood at 3.5 µM; in test [4], 2 µM.
